One sequence from article PMC11772769, “Selective cargo and membrane recognition by SNX17 regulates its interaction with Retriever” (EMBO Reports, 2024) can be followed below.

Changes are numbered by the printed parent chain. Where two headings read alike, the source gives them in different places. Where no end group is shown, it is not given here.

The target of one experiment is T1, MBP-SNX17 WT (Homo sapiens, UniProt Q15036).
T1 construct: M protein marker, R Retriever complex, FL full-length; His (N, cleaved yes); made in house; host or cells: Escherichia coli BL21(DE3)
T1 sequence (Q15036 1-470): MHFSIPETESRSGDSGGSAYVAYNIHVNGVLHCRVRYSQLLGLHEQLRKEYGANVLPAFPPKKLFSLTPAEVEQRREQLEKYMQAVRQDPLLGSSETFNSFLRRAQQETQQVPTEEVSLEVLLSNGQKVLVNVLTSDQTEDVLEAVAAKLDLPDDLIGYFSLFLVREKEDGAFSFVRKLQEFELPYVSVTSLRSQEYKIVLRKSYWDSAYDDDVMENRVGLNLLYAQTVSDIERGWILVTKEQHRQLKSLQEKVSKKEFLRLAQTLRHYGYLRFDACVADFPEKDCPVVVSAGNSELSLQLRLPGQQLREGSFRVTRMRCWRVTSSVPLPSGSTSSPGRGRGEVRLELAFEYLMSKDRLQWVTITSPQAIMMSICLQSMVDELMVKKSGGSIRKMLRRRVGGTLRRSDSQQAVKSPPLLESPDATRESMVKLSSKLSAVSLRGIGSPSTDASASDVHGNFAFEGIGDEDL
The experiment in a line: Fluorescence anisotropy binding of 5-FAM peptides to MBP-SNX17 wild-type. The protocol: (§1) Lyophilized peptides were resuspended in 100 mM Hepes pH 8.0 at 5 mg/ml and further diluted in the assay buffer (50 mM Hepes pH 7.5, 300 mM NaCl, and 1 mM DTT). […] The mixture was incubated at 25 °C for at least 30 min and then transferred to 96 Flat Black plates. Fluorescence anisotropy was measured at 25 °C using Spark 10M Plate Reader (Tecan) with a 485/20 excitation filter and a 535/35 emission filter. The dissociation constants were calculated in GraphPad Prism by nonlinear regression fitting of the experimental data to a one-site total binding model. The final KD measurement is the mean of at least two independent experiments.

In a further experiment the target is T2, MBP-SNX17N459A+F462A (Homo sapiens, UniProt Q15036, F462A/N459A).
T2 construct: M protein marker, R Retriever complex, FL full-length; His (N, cleaved yes); made in house; host or cells: Escherichia coli BL21(DE3)
T2 sequence (Q15036 1-470 N459A/F462A): T1 sequence (Q15036 1-470) with N459A, F462A
In words: Fluorescence anisotropy binding of 5-FAM peptides to MBP-SNX17 N459A+F462A. How it is done: as §1
In general terms: In fluorescence polarisation assays a small probe gives low polarisation when free and higher when bound to something large.

Experiment [1] addresses T3, SNX17FERM-CT (amino acids 109-470) (Homo sapiens, UniProt Q15036).
T3 construct: His-Sumo3 (N, cleaved yes); made in house; host or cells: Escherichia coli BL21(DE3)
T3 sequence (Q15036 109-470): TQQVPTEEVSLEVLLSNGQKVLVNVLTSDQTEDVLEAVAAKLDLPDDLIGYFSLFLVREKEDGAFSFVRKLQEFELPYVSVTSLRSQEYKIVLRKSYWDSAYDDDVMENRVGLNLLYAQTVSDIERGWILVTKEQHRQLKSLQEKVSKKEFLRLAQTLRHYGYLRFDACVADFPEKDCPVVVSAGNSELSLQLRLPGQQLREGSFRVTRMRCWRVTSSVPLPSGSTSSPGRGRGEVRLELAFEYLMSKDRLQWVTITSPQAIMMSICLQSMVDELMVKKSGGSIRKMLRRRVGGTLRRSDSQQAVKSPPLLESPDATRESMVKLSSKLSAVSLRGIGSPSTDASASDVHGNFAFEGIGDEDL
In words: Fluorescence anisotropy binding of 5-FAM cargo peptides to SNX17FERM-CT. The protocol:
as §1

The next experiment deals with T4, MBP-SNX17V380D (Homo sapiens, UniProt Q15036, V380D).
T4 construct: M protein marker, R Retriever complex, FL full-length; His (N, cleaved yes); made in house; host or cells: Escherichia coli BL21(DE3)
T4 sequence (Q15036 1-470 V380D): T1 sequence (Q15036 1-470) with V380D
The experiment in a line: Fluorescence anisotropy binding of 5-FAM peptides to MBP-SNX17 V380D. The protocol:
as §1

A further experiment has as its target T5, MBP-SNX17H457A (Homo sapiens, UniProt Q15036, H457A).
T5 construct: M protein marker, R Retriever complex, FL full-length; His (N, cleaved yes); made in house; host or cells: Escherichia coli BL21(DE3)
T5 sequence (Q15036 1-470 H457A): T1 sequence (Q15036 1-470) with H457A
In words: Fluorescence anisotropy binding of 5-FAM peptides to MBP-SNX17 H457A. How it is done:
as §1

What is called Kd is the free concentration of one partner at which half of the binding sites on the other are occupied at equilibrium, for simple one-to-one binding.

Consider KLITYDNPAYEGID [L2 14-mer], for which the Kd on MBP-SNX17 WT was 1100 ± 100 nM; at MBP-SNX17N459A+F462A, 600 ± 100 nM; in experiment [1], 640 nM; at MBP-SNX17V380D (0.1 μM 5-FAM peptide, pH 7.5, 300 mM NaCl, 25 °C, one-site total binding, Bmax fixed at 240, three biological replicates (Fig. 4E)), > 32000 nM; on MBP-SNX17V380D (5-FAM peptide, replicate Y1, sheet KD-L2-14-mer, unit inferred, read-out: KD MBP-SNX17V380D), > 32000 nM; on MBP-SNX17V380D (5-FAM peptide, replicate Y2, sheet KD-L2-14-mer, unit inferred, read-out: KD MBP-SNX17V380D) it was > 32000 nM. Further, the Kd at MBP-SNX17V380D (5-FAM peptide, replicate Y3, sheet KD-L2-14-mer, unit inferred, read-out: KD MBP-SNX17V380D) was > 32000 nM; on MBP-SNX17H457A, 1100 ± 300 nM.
